This assay has as its target T1, CGRP1 receptor (Homo sapiens, UniProt O60894+Q16602).
T1 construct: SK-N-MC cells express CRLR and RAMP1, which form CGRP1 receptor; endogenous in cells; host or cells: SK-N-MC human neuroblastoma cells
Kind of assay: in vitro CGRP1 receptor mediated cAMP assay in SK-N-MC cells. As to conditions: read-out: IC50. Format: cell-based. On the procedure: The in vitro cAMP assay employed a human neuroblastoma-derived cell line (SK-N-MC). SK-N-MC cells express CRLR and RAMP1, which form CGRP1 receptor. CGRP1 receptor is a G-protein coupled receptor linked to the stimulatory G-protein, Gs. […] Briefly, two days before the assay, the cells were plated in 96-well plates in growth medium. On the day of the assay cells were rinsed with PBS followed by the addition of 60 μl of plasma free medium for 15 minutes at room temperature. […] The medium was then removed and the cells were lysed with 100 μl lysis buffer for 30 minutes at 37° C. for 30 minutes. Using a Tropix ELISA kit (Applied Biosystems, Foster City, Calif.), a cAMP-AP conjugate was diluted (1:100) and added (30 μl) to each well of a 96-well ELISA plate. An aliquot of the lysis buffer from the cell plate was then added to the ELISA plate followed by an aliquot of the cAMP antibody. This mixture was incubated for 1 hour at room temperature with gentle shaking. The ELISA plate was then washed 6× with wash buffer followed by the additions of a substrate enhancer. This mixture was incubated for 30 minutes at room temperature and then read on a MicroBeta Jet or EnVision plate reader. The results were analyzed using Prism (GraphPad).

Read-outs that look alike come from different tables or passages of the source. Square brackets hold non-standard residues; d marks the D form. Peptide text beside a SMILES is read from it. Bip = N[C@@H](Cc1ccc(-c2ccccc2)cc1)C(=O)O; Oic = O=C(O)[C@@H]1C[C@@H]2CCCC[C@@H]2N1; Phe(4-I) = N[C@@H](Cc1ccc(I)cc1)C(=O)O; 1Nal = N[C@@H](Cc1cccc2ccccc12)C(=O)O; 2Nal = N[C@@H](Cc1ccc2ccccc2c1)C(=O)O; hArg = N=C(N)NCCCC[C@H](N)C(=O)O; Tic = O=C(O)[C@@H]1Cc2ccccc2CN1; Cit = NC(=O)NCCC[C@H](N)C(=O)O

The text below walks through data of US8168592B2 (Amgen Inc., priority 2005, dated 2012).

T1 sequence (Q16602 23-461): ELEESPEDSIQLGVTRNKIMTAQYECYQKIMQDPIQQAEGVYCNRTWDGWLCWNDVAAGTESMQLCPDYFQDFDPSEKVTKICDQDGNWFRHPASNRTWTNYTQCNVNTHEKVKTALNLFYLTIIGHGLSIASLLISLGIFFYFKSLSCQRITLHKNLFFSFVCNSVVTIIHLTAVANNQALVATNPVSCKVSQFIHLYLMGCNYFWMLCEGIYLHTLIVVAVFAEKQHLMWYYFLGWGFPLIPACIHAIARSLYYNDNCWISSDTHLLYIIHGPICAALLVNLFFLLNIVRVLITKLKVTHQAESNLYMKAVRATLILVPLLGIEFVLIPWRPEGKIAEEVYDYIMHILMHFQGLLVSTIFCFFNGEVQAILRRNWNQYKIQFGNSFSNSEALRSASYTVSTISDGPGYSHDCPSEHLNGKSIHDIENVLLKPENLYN
T1 sequence (O60894 27-148): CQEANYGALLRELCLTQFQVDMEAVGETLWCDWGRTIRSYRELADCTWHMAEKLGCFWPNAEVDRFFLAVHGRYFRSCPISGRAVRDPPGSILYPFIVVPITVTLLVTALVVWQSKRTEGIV

One may read the IC50 as the concentration at which inhibition is half-maximal. On to “766 (Ac-WVTHRLAGLLSRSGGVVRC(20 kDa MeO‑PEG)NFVPTDVGPFAF-NH2) [compound 766]”, for which, under “Table 2D”, the half-maximal inhibitory concentration (IC50) is 4.09 nM. Consider “805 (Ac-WVTHRLAGLLSRSGGVVRC(20 kDa MeO‑PEG)NFVPTDVGPFAF-NH2) [compound 805]”, for which, under “Table 2D”, the 50% inhibitory concentration (IC50) came out at 1.33 nM.

With `CC(C)C[C@H](NC(=O)CNC(=O)[C@H](C)NC(=O)[C@H](CC(C)C)NC(=O)[C@H](CCCNC(=N)N)NC(=O)[C@H](Cc1cnc[nH]1)NC(=O)[C@@H](NC(=O)[C@@H](NC(=O)[C@@H](N)Cc1c[nH]c2ccccc12)C(C)C)[C@@H](C)O)C(=O)N[C@@H](CC(C)C)C(=O)N[C@@H](CO)C(=O)N[C@@H](CCCNC(=N)N)C(=O)N[C@@H](CO)C(=O)NCC(=O)NCC(=O)N[C@H](C(=O)N[C@H](C(=O)N[C@@H](CCCCN)C(=O)N[C@@H](CC(N)=O)C(=O)N[C@@H](CC(N)=O)C(=O)N[C@@H](Cc1ccccc1)C(=O)N[C@H](C(=O)N1CCC[C@H]1C(=O)N[C@H](C(=O)N[C@@H](CC(N)=O)C(=O)N[C@H](C(=O)NCC(=O)N[C@@H](CO)C(=O)N[C@@H](CCCCN)C(=O)N[C@@H](C)C(=O)N[C@@H](Cc1ccccc1)C(N)=O)C(C)C)[C@@H](C)O)C(C)C)C(C)C)C(C)C` [compound 4], the 50% inhibitory concentration (IC50) (Table 3, unconjugated CGRP peptide analogs, n = 2-4) was found to be 0.64 nM.

`CC(=O)N[C@@H](CCCCN)C(=O)N[C@@H](Cc1c[nH]c2ccccc12)C(=O)N[C@H](C(=O)N[C@H](C(=O)N[C@@H](Cc1c[nH]cn1)C(=O)N[C@@H](CCCNC(N)=O)C(=O)N[C@@H](CC(C)C)C(=O)N[C@@H](C)C(=O)NCC(=O)N[C@@H](CC(C)C)C(=O)N[C@@H](CC(C)C)C(=O)N[C@@H](CO)C(=O)N[C@@H](CCCNC(N)=O)C(=O)N[C@@H](CO)C(=O)NCC(=O)NCC(=O)N[C@H](C(=O)N[C@H](C(=O)N[C@@H](CCCNC(=N)N)C(=O)N[C@@H](CCCCN)C(=O)N[C@@H](CC(N)=O)C(=O)N[C@@H](Cc1ccccc1)C(=O)N[C@H](C(=O)N1CCC[C@H]1C(=O)N[C@H](C(=O)N[C@@H](CC(=O)O)C(=O)N[C@H](C(=O)NCC(=O)N1CCC[C@H]1C(=O)N[C@@H](CCCCN)C(=O)N[C@@H](C)C(=O)N[C@@H](Cc1ccccc1)C(N)=O)C(C)C)[C@@H](C)O)C(C)C)C(C)C)C(C)C)[C@@H](C)O)C(C)C` [compound 128] (Ac-KWVTH[Cit]LAGLLS[Cit]SGGVVRKNFVPTDVGPKAF-NH2): the IC50 (Table 2A) came to 13 nM. For `CC(=O)N[C@@H](Cc1c[nH]c2ccccc12)C(=O)N[C@H](C(=O)N[C@H](C(=O)N[C@@H](Cc1cnc[nH]1)C(=O)N[C@@H](CCCNC(N)=O)C(=O)N[C@@H](CC(C)C)C(=O)N[C@@H](C)C(=O)NCC(=O)N[C@@H](CC(C)C)C(=O)N[C@@H](CC(C)C)C(=O)N[C@@H](CO)C(=O)N[C@@H](CCCNC(N)=O)C(=O)N[C@@H](CO)C(=O)NCC(=O)NCC(=O)N[C@H](C(=O)N[C@H](C(=O)N[C@@H](CCCCN=C(N)N)C(=O)N[C@@H](CCCCN)C(=O)N[C@@H](CC(N)=O)C(=O)N[C@@H](Cc1ccccc1)C(=O)N[C@H](C(=O)N1CCC[C@H]1C(=O)N[C@H](C(=O)N[C@@H](CC(=O)O)C(=O)N[C@H](C(=O)NCC(=O)N1CCC[C@H]1C(=O)N1Cc2ccccc2C[C@H]1C(=O)N[C@@H](C)C(=O)N[C@@H](Cc1ccccc1)C(N)=O)C(C)C)[C@@H](C)O)C(C)C)C(C)C)C(C)C)[C@@H](C)O)C(C)C` [compound 131] (Ac-WVTH[Cit]LAGLLS[Cit]SGGVV[hArg]KNFVPTDVGP[Tic]AF-NH2), the IC50 (Table 2A) was found to be 89.9 nM.

For the compound `CC(=O)N[C@@H](Cc1c[nH]c2ccccc12)C(=O)N[C@H](C(=O)N[C@H](C(=O)N[C@@H](Cc1c[nH]cn1)C(=O)N[C@@H](CCCNC(N)=O)C(=O)N[C@@H](CC(C)C)C(=O)N[C@@H](C)C(=O)NCC(=O)N[C@@H](CC(C)C)C(=O)N[C@@H](CC(C)C)C(=O)N[C@@H](CO)C(=O)N[C@@H](CCCNC(N)=O)C(=O)N[C@@H](CO)C(=O)NCC(=O)NCC(=O)N[C@H](C(=O)N[C@H](C(=O)N[C@@H](CCCCNC(=N)N)C(=O)N[C@@H](CCCCN)C(=O)N[C@@H](CC(N)=O)C(=O)N[C@@H](Cc1ccccc1)C(=O)N[C@H](C(=O)N1[C@H](C(=O)N[C@H](C(=O)N[C@@H](CC(=O)O)C(=O)N[C@H](C(=O)NCC(=O)N2[C@H](C(=O)N[C@@H](Cc3ccccc3)C(=O)N[C@@H](C)C(=O)N[C@@H](Cc3ccc4ccccc4c3)C(N)=O)C[C@@H]3CCCC[C@@H]32)C(C)C)[C@@H](C)O)C[C@@H]2CCCC[C@@H]21)C(C)C)C(C)C)C(C)C)[C@@H](C)O)C(C)C` [compound 132] (Ac-WVTH[Cit]LAGLLS[Cit]SGGVV[hArg]KNFV[Oic]TDVG[Oic]FA[2Nal]-NH2), the IC50 (Table 2A) amounted to 2.57 nM. As for `CC(=O)N[C@@H](Cc1c[nH]c2ccccc12)C(=O)N[C@H](C(=O)N[C@H](C(=O)N[C@@H](Cc1c[nH]cn1)C(=O)N[C@@H](CCCNC(N)=O)C(=O)N[C@@H](CC(C)C)C(=O)N[C@@H](C)C(=O)NCC(=O)N[C@@H](CC(C)C)C(=O)N[C@@H](CC(C)C)C(=O)N[C@@H](CO)C(=O)N[C@@H](CCCNC(N)=O)C(=O)N[C@@H](CO)C(=O)NCC(=O)NCC(=O)N[C@H](C(=O)N[C@H](C(=O)N[C@@H](CCCCNC(=N)N)C(=O)N[C@@H](CCCCN)C(=O)N[C@@H](CC(N)=O)C(=O)N[C@@H](Cc1ccccc1)C(=O)N[C@H](C(=O)N1[C@H](C(=O)N[C@H](C(=O)N[C@@H](CC(=O)O)C(=O)N[C@H](C(=O)NCC(=O)N2CCC[C@H]2C(=O)N[C@@H](Cc2cccc3ccccc23)C(=O)N[C@@H](C)C(=O)N[C@@H](Cc2ccc3ccccc3c2)C(N)=O)C(C)C)[C@@H](C)O)C[C@@H]2CCCC[C@@H]21)C(C)C)C(C)C)C(C)C)[C@@H](C)O)C(C)C` [compound 133] (Ac-WVTH[Cit]LAGLLS[Cit]SGGVV[hArg]KNFV[Oic]TDVGP[1Nal]A[2Nal]-NH2), the IC50 (Table 2A) is 2.73 nM. For the compound `CC(=O)N[C@@H](Cc1c[nH]c2ccccc12)C(=O)N[C@H](C(=O)N[C@H](C(=O)N[C@@H](Cc1c[nH]cn1)C(=O)N[C@@H](CCCNC(N)=O)C(=O)N[C@@H](CC(C)C)C(=O)N[C@@H](C)C(=O)NCC(=O)N[C@@H](CC(C)C)C(=O)N[C@@H](CC(C)C)C(=O)N[C@@H](CO)C(=O)N[C@@H](CCCNC(N)=O)C(=O)N[C@@H](CO)C(=O)NCC(=O)NCC(=O)N[C@H](C(=O)N[C@H](C(=O)N[C@@H](CCCCNC(=N)N)C(=O)N[C@@H](CCCCN)C(=O)N[C@@H](CC(N)=O)C(=O)N[C@@H](Cc1ccccc1)C(=O)N[C@H](C(=O)N1[C@H](C(=O)N[C@H](C(=O)N[C@@H](CC(=O)O)C(=O)N[C@H](C(=O)NCC(=O)N2CCC[C@H]2C(=O)N[C@@H](Cc2ccc(-c3ccccc3)cc2)C(=O)N[C@@H](C)C(=O)N[C@@H](Cc2ccccc2)C(N)=O)C(C)C)[C@@H](C)O)C[C@@H]2CCCC[C@@H]21)C(C)C)C(C)C)C(C)C)[C@@H](C)O)C(C)C` [compound 134] (Ac-WVTH[Cit]LAGLLS[Cit]SGGVV[hArg]KNFV[Oic]TDVGP[Bip]AF-NH2), the half-maximal inhibitory concentration (IC50) (Table 2A) is 3.85 nM. On to `CC(=O)N[C@@H](Cc1c[nH]c2ccccc12)C(=O)N[C@H](C(=O)N[C@H](C(=O)N[C@@H](Cc1c[nH]cn1)C(=O)N[C@@H](CCCNC(N)=O)C(=O)N[C@@H](CC(C)C)C(=O)N[C@@H](C)C(=O)NCC(=O)N[C@@H](CC(C)C)C(=O)N[C@@H](CC(C)C)C(=O)N[C@@H](CO)C(=O)N[C@@H](CCCNC(N)=O)C(=O)N[C@@H](CO)C(=O)NCC(=O)NCC(=O)N[C@H](C(=O)N[C@H](C(=O)N[C@@H](CCCCNC(=N)N)C(=O)N[C@@H](CCCCN)C(=O)N[C@@H](CC(N)=O)C(=O)N[C@@H](Cc1ccccc1)C(=O)N[C@H](C(=O)N1[C@H](C(=O)N[C@H](C(=O)N[C@@H](CC(=O)O)C(=O)N[C@H](C(=O)NCC(=O)N2CCC[C@H]2C(=O)N[C@@H](Cc2ccccc2)C(=O)N[C@@H](C)C(=O)N[C@@H](Cc2ccc3ccccc3c2)C(N)=O)C(C)C)[C@@H](C)O)C[C@@H]2CCCC[C@@H]21)C(C)C)C(C)C)C(C)C)[C@@H](C)O)C(C)C` [compound 135] (Ac-WVTH[Cit]LAGLLS[Cit]SGGVV[hArg]KNFV[Oic]TDVGPFA[2Nal]-NH2), for which, under “Table 2A”, the IC50 is 3.22 nM. For the compound `CC(=O)N[C@@H](Cc1c[nH]c2ccccc12)C(=O)N[C@H](C(=O)N[C@H](C(=O)N[C@@H](Cc1c[nH]cn1)C(=O)N[C@@H](CCCNC(N)=O)C(=O)N[C@@H](CC(C)C)C(=O)N[C@@H](C)C(=O)NCC(=O)N[C@@H](CC(C)C)C(=O)N[C@@H](CC(C)C)C(=O)N[C@@H](CO)C(=O)N[C@@H](CCCNC(N)=O)C(=O)N[C@@H](CO)C(=O)NCC(=O)NCC(=O)N[C@H](C(=O)N[C@H](C(=O)N[C@@H](CCCCNC(=N)N)C(=O)N[C@@H](CCCCN)C(=O)N[C@@H](CC(N)=O)C(=O)N[C@@H](Cc1ccc(I)cc1)C(=O)N[C@H](C(=O)N1[C@H](C(=O)N[C@H](C(=O)N[C@@H](CC(=O)O)C(=O)N[C@H](C(=O)NCC(=O)N2CCC[C@H]2C(=O)N[C@@H](Cc2ccc(I)cc2)C(=O)N[C@@H](C)C(=O)N[C@@H](Cc2ccccc2)C(N)=O)C(C)C)[C@@H](C)O)C[C@@H]2CCCC[C@@H]21)C(C)C)C(C)C)C(C)C)[C@@H](C)O)C(C)C` [compound 136] (Ac-WVTH[Cit]LAGLLS[Cit]SGGVV[hArg]KN[Phe(4-I)]V[Oic]TDVGP[Phe(4-I)]AF-NH2), the IC50 (Table 2A) worked out at 2.34 nM.
